Measurements: patent US4473578A, “β-Lactam antibiotics and their use” (Beecham Group Limited, priority 1979, dated 1984)
≈ marks a conversion by molar mass, not a printed value.

Assays:
Assay in all cases: Antibacterial effectiveness in agar
Assay type in all cases: cell-based
Escherichia coli 5 = details: in agar; Escherichia coli 5; read-out: M.I.C.
Description: (§1) b. Antibacterial effectiveness of the compound of […]

[1] = system: Enterobacter cloacea NCTC 10005; details: NCTC10005; in agar; Enterobacter cloacea NCTC 10005; read-out: M.I.C.
Description: as §1

[2] = system: Pseudomonas aeruginosa NCTC 10662; details: NCTC10662; in agar; Pseudomonas aeruginosa NCTC 10662; read-out: M.I.C.
Description: as §1

[3] = system: Streptococcus faecalis T1101; details: Enterococcus faecalis; in agar; Streptococcus faecalis T1101; read-out: M.I.C.
Description: as §1

[4] = system: Bacteroides fragilis 2118; details: in agar; Bacteroides fragilis 2118; read-out: M.I.C.
Description: as §1

Bacteroides fragilis B3 = details: in agar; Bacteroides fragilis B3; read-out: M.I.C.
Description: as §1

Citrobacter freundii W18 = details: in agar; Citrobacter freundii W18; read-out: M.I.C.
Description: as §1

Proteus rettgeri I = details: Providencia rettgeri; in agar; Proteus rettgeri I; read-out: M.I.C.
Description: as §1

Escherichia coli JT425C+ = details: in agar; Escherichia coli JT425C+; read-out: M.I.C.
Description: as §1

[5] = system: Bacteroides fragilis BC16; details: in agar; Bacteroides fragilis BC16; read-out: M.I.C.
Description: as §1

Escherichia coli JT4R+ = system: Escherichia coli JT4R+
Description: as §1

CC(=O)N/C=C/SC1=C(C(=O)O)N2C(=O)[C@@H]([C@H](C)OS(=O)(=O)O)[C@H]2C1 [MM 13902, reference compound]
MIC (Escherichia coli 5): ≤ 0.1 µg/mL | MIC [1]: 12.5 µg/mL (≈ 31.9 µM) | MIC [2]: 25 µg/mL (≈ 63.7 µM) | MIC [3]: 6.2 µg/mL (≈ 15.8 µM) | MIC [4]: 0.2 µg/mL (≈ 0.51 µM) | MIC (Bacteroides fragilis B3): 0.4 µg/mL (≈ 1.02 µM) | MIC (Citrobacter freundii W18): 6.2 µg/mL (≈ 15.8 µM) | MIC (Proteus rettgeri I): 0.2 µg/mL (≈ 0.51 µM) | MIC (Escherichia coli JT425C+): 0.8 µg/mL (≈ 2.04 µM) | MIC [5]: 1.6 µg/mL (≈ 4.08 µM) | MIC (Escherichia coli JT4R+): 1.6 µg/mL (≈ 4.08 µM)
